The record followed here is patent US20240002416A1 (Rheinische-Friedrich-Wilhelms-Universität Bonn, priority 2020, published 2024).

Each structure is given as a SMILES string. Read-outs that look alike come from different tables or passages of the source.

As a reminder, the Emax is the greatest response seen or fitted, relative to the assay's reference. One may read the EC50 as the concentration at which the effect is half-maximal. As usually defined, the melting point is the temperature of the solid-liquid transition. For orientation: IC50 means the point on the concentration scale where inhibition reaches its midpoint. Higher therefore signals weaker potency in that assay.

Data set [1] concerns the target T1, human MRGPRX4-83L (Homo sapiens, UniProt Q96LA9).
T1 construct: host or cells: CHO β-arrestin cells
As to the kind of experiment: β-arrestin assay (CHO β-arrestin ARMS1-ProLink 2 human MRGPRX4 83L). Format: cell-based. Conditions: for Emax: efficacy based on maximal effect of 100 nM B-16 (set as 100%), read-out: Emax; for EC50: β-arrestin recruitment, CHO cells, MRGPRX4-83L, read-out: EC50 ± SEM. As to the method: (§1) For β-arrestin recruitment assays, recombinant Chinese hamster ovary (CHO) cells expressing the human MRGPRX4 were used (DiscoverX/Eurofins) which allowed to measure β-galactosidase complementation upon β-arrestin recruitment. For calcium mobilization assays, recombinant astrocytes expressing MRGPX4-83L, or LN229 glioblastoma cells natively expressing the MRGPRX4-83S, were used.
(§2) The assays were performed as previously described for other rhodopsin-like GPCRs (Müller, C.E.; 8-Benzamidochromen-4-one-2-carboxylic acids: potent and selective agonists for the orphan G protein-coupled receptor GPR35. J. Med. Chem. 2013, 56:5182-97; Müller, C.E. Molecular Recognition of Agonists and Antagonists by the Nucleotide-Activated G Protein-Coupled P2Y2 Receptor. J. Med. Chem. 2017, 60:8425-8440).
(Recruitment of arrestin is a read-out of receptor activation apart from second messengers.)

Data set [2] has as its target T1, human MRGPRX4-83L. As to the kind of experiment: Calcium assay (human MRGPRX4 83L), recombinant astrocytes. Type of data set: cell-based. The settings on record: for EC50: calcium mobilization, MRGPRX4-83L, read-out: EC50 ± SEM; for Emax: efficacy based on maximal effect of 1 μM B-16 (set as 100%), read-out: Emax. As to the method: as §1, §2
(A change in cytosolic calcium serves as a functional read-out for many receptors and channels.)

The target of data set [3] is MRGPRX4-83S (Homo sapiens, UniProt Q96LA9, L83S). As to the kind of experiment: β-arrestin assay (CHO β-arrestin human MRGPRX4-83S). Type of data set: cell-based. Further details: host or cells: CHO β-arrestin cells. The settings on record: for Emax: efficacy based on 100 nM B-16 (set as 100%), read-out: Emax; for EC50: β-arrestin recruitment, CHO cells, MRGPRX4-83S, read-out: EC50 ± SEM. As to the method: as §1, §2

The mark [4] stands for this setting: Table 1, means of 3-4 experiments.

MRGPRX4-83S, sequence (Q96LA9 whole entry L83S): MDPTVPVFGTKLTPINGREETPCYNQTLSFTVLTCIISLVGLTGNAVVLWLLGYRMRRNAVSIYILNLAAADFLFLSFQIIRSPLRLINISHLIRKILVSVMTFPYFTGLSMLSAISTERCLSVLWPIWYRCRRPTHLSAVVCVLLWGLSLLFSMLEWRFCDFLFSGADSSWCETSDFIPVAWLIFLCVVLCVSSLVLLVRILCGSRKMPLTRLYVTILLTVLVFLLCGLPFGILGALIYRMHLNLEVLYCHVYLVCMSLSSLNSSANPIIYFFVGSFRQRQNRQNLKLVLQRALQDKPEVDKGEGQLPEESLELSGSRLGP
T1 sequence (Q96LA9 whole entry): as the sequence (Q96LA9 whole entry L83S) above, with S83L counted along it

As to `C#CCn1c(=O)c2[nH]c(CCc3ccccc3Br)nc2n(CCCCP(=O)(O)O)c1=O` [B-8, (4-(8-(2-Bromophenethyl)-2,6-dioxo-1-(prop-2-yn-1-yl)-1,2,6,7-tetrahydro-3H-purin-3-yl)butyl)phosphonic acid], the melting point lay in the range of 209 to 212 °C. In addition, the Emax in data set [1] (Table 1) was found to be 98%. Further, the EC50 in data set [1] (setting [4]) is 243 ± 45 nM. In addition, in data set [2] (Table 1), the concentration giving a half-maximal response (EC50) is 22.7 ± 7.2 nM and the Emax turned out to be 114%. Further, in data set [3] (Table 2), the maximal response (Emax) was 143% and the EC50 stood at 3.15 ± 0.82 nM.
`C#CCn1c(=O)c2[nH]c(CCc3ccccc3Cl)nc2n(CCCCP(=O)(O)O)c1=O` [B-9, (4-(8-(2-Chlorophenethyl)-2,6-dioxo-1-(prop-2-yn-1-yl)-1,2,6,7-tetrahydro-3H-purin-3-yl)butyl)phosphonic acid] returned a melting point of 207 to 209 °C. The Emax in data set [1] (Table 1) worked out at 107%. For the same compound, the EC50 in data set [1] (setting [4]) turned out to be 1260 ± 270 nM. Further, in data set [2] (Table 1), the EC50 came to 55.2 ± 1.7 nM and the maximal response (Emax) came out at 107%. Also, in data set [3] (Table 2), the Emax is 116% and the EC50 turned out to be 3.45 ± 0.28 nM.
With `C#CCn1c(=O)c2[nH]c(CCc3ccc(OC)c(OC)c3)nc2n(CCCCP(=O)(O)O)c1=O` [B-11, (4-(8-(3,4-Dimethoxyphenethyl)-2,6-dioxo-1-(prop-2-yn-1-yl)-1,2,6,7-tetrahydro-3H-purin-3-yl)butyl)phosphonic acid], the melting point lay in the range of 254 to 256 °C. The IC50 in data set [1] (Table 1, inhibition of the effect of 2.6 μM B-16) came out at 50.5 ± 1.4 µM. Besides, in data set [1] (setting [4]), the EC50 is above 10000 nM. In addition, in data set [2] (Table 1), the 50% effective concentration (EC50) is 28000 ± 3300 nM and the maximum response (Emax) amounted to 100%. Further, 9.72 ± 1.05 µM corresponded to half-maximal inhibition in data set [3] (IC50).
The compound `C#CCn1c(=O)c2nc(CCc3ccc(Br)cc3)[nH]c2n(CCCCP(=O)(O)O)c1=O` [B-26, (4-(8-(4-Bromophenethyl)-2,6-dioxo-1-(prop-2-yn-1-yl)-1,2,6,9-tetrahydro-3H-purin-3-yl)butyl) phosphonic acid] showed a melting point of 206 to 208 °C. In data set [1] (Table 4), the Emax was determined as 70% and the EC50 was found to be 2740 ± 580 nM. Moreover, in data set [2] (Table 4), the concentration giving a half-maximal response (EC50) worked out at 187 ± 39 nM and the Emax amounted to 79%.
`C#CCn1c(=O)c2[nH]c(CCc3ccc(-c4ccccc4)cc3)nc2n(CCCCP(=O)(O)O)c1=O` [B-27, (4-(8-(2-([1,1′-Biphenyl]-4-yl)ethyl)-2,6-dioxo-1-(prop-2-yn-1-yl)-1,2,6,7-tetrahydro-3H-purin-3-yl)butyl)phosphonic acid] registered a melting point of 212 to 214 °C. Moreover, in data set [3] (Table 3), the Emax came out at 68% and the EC50 came out at 36.7 ± 2.8 nM.
`C#CCn1c(=O)c2c(nc(CCc3ccc(Br)cc3)n2C)n(CCCCP(=O)(O)O)c1=O` [B-29, (4-(8-(4-Bromophenethyl)-7-methyl-2,6-dioxo-1-(prop-2-yn-1-yl)-1,2,6,7-tetrahydro-3H-purin-3-yl)butyl)phosphonic acid] yielded a melting point of 227 to 229 °C. In addition, in data set [1] (Table 4), the Emax amounted to 100% and the EC50 amounted to 2440 ± 750 nM. In data set [2] (Table 4), the EC50 worked out at 134 ± 13 nM and the Emax was found to be 45%.
On the same counts, the results for `C#CCn1c(=O)c2c(nc(CCc3ccccc3F)n2CC)n(CCCCP(=O)(O)O)c1=O` [B-30, (4-(7-Ethyl-8-(2-fluorophenethyl)-2,6-dioxo-1-(prop-2-yn-1-yl)-1,2,6,7-tetrahydro-3H-purin-3-yl)butyl)phosphonic acid] are 197 to 199 °C, 96%, 262 ± 97 nM, 15.5 ± 12.5 nM and 97%.
`C#CCn1c(=O)c2c(nc(CCc3ccc(Br)cc3)n2CC)n(CCCCP(=O)(O)O)c1=O` [B-35, (4-(8-(4-Bromophenethyl)-7-ethyl-2,6-dioxo-1-(prop-2-yn-1-yl)-1,2,6,7-tetrahydro-3H-purin-3-yl)butyl)phosphonic acid]: the melting point fell in the range of 169 to 171 °C. Further, in data set [1] (Table 4), the Emax amounted to 84% and the EC50 worked out at 521 ± 142 nM. Besides, in data set [2] (Table 4), the EC50 turned out to be 306 ± 111 nM and the maximal effect (Emax) is 41%.
Turning to `C#CCn1c(=O)c2c(nc(CCc3ccccc3Br)n2CC2CCCC2)n(CCCCP(=O)(O)O)c1=O` [B-37, (4-(8-(2-Bromophenethyl)-7-(cyclopentylmethyl)-2,6-dioxo-1-(prop-2-yn-1-yl)-1,2,6,7-tetrahydro-3H-purin-3-yl)butyl)phosphonic acid], the melting point was 137 to 139 °C. Moreover, in data set [1] (Table 4), the Emax is 87% and the EC50 came out at 169 ± 23 nM. Besides, in data set [2] (Table 4), the EC50 amounted to 89.2 ± 25.5 nM and the Emax came to 84%.
`C#CCn1c(=O)c2c(nc(CCc3ccc(CC)cc3)n2CC2CCCC2)n(CCCCP(=O)(O)O)c1=O` [B-42, (4-(7-(cyclopentylmethyl)-8-(4-ethylphenethyl)-2,6-dioxo-1-(prop-2-yn-1-yl)-1,2,6,7-tetrahydro-3H-purin-3-yl)butyl)phosphonic acid] displayed a melting point of 133 to 135 °C. In data set [3] (Table 3), the maximum response (Emax) was 92% and the EC50 was 12.5 ± 1.3 nM.
Turning to `C#CCn1c(=O)c2c(nc(CCc3ccccc3I)n2C(C)C)n(CCCCP(=O)(O)O)c1=O` [B-47, (4-(8-(2-Iodophenethyl)-7-isopropyl-2,6-dioxo-1-(prop-2-yn-1-yl)-1,2,6,7-tetrahydro-3H-purin-3-yl)butyl)phosphonic acid], the melting point fell in the range of 123 to 125 °C. Besides, in data set [1] (Table 4), the Emax came to 97% and the EC50 amounted to 6.85 ± 7.18 nM. Besides, in data set [2] (Table 4), the EC50 amounted to 1.16 ± 0.26 nM and the Emax was determined as 118%.
In the same order, the values of `C#CCn1c(=O)c2[nH]c(CCc3ccccc3Br)nc2n(CCCCCP(=O)(O)O)c1=O` [B-52, (5-(8-(2-Bromophenethyl)-2,6-dioxo-1-(prop-2-yn-1-yl)-1,2,6,7-tetrahydro-3H-purin-3-yl)pentyl)phosphonic acid] are 219 to 221 °C, 93%, 1890 ± 280 nM, 604 ± 275 nM and 61%.
In the same order, the values of `C#CCn1c(=O)c2c(nc(CCc3ccccc3Br)n2C)n(CCCCCP(=O)(O)O)c1=O` [B-53, (5-(8-(2-Bromophenethyl)-7-methyl-2,6-dioxo-1-(prop-2-yn-1-yl)-1,2,6,7-tetrahydro-3H-purin-3-yl)pentyl)phosphonic acid] are 110 to 112 °C, 94%, 1070 ± 350 nM, 15.5 ± 1 nM and 113%.
In the same order, the values of `C#CCn1c(=O)c2c(nc(CCc3ccccc3Br)n2CC)n(CCCCCP(=O)(O)O)c1=O` [B-54, (5-(8-(2-Bromophenethyl)-7-ethyl-2,6-dioxo-1-(prop-2-yn-1-yl)-1,2,6,7-tetrahydro-3H-purin-3-yl)pentyl)phosphonic acid] are 146 to 148 °C, 96%, 534 ± 170 nM, 20.1 ± 4.1 nM and 103%.
In turn, `C#CCn1c(=O)c2[nH]c(CCc3ccccc3Br)nc2n(CCCCCCP(=O)(O)O)c1=O` [B-55, (6-(8-(2-Bromophenethyl)-2,6-dioxo-1-(prop-2-yn-1-yl)-1,2,6,7-tetrahydro-3H-purin-3-yl)hexyl)phosphonic acid] had a melting point of 225 to 227 °C. For the same compound, in data set [1] (Table 4), the Emax came out at 98% and the EC50 came out at 857 ± 220 nM. Moreover, in data set [2] (Table 4), the EC50 was 57.8 ± 18.9 nM and the Emax was determined as 94%.
On the same counts, the results for `C#CCn1c(=O)c2c(nc(CCc3ccccc3Br)n2C)n(CCCCCCP(=O)(O)O)c1=O` [B-56, (6-(8-(2-Bromophenethyl)-7-methyl-2,6-dioxo-1-(prop-2-yn-1-yl)-1,2,6,7-tetrahydro-3H-purin-3-yl)hexyl)phosphonic acid] are 221 to 223 °C, 91%, 576 ± 83 nM, 57.8 ± 18.9 nM and 102%.
In the same order, the values of `C#CCn1c(=O)c2c(nc(CCc3ccccc3Br)n2CC)n(CCCCCCP(=O)(O)O)c1=O` [B-57, (6-(8-(2-Bromophenethyl)-7-ethyl-2,6-dioxo-1-(prop-2-yn-1-yl)-1,2,6,7-tetrahydro-3H-purin-3-yl)hexyl)phosphonic acid] are 223 to 225 °C, 97%, 766 ± 357 nM, 474 ± 152 nM and 98%.
